Measurements from ChEMBL document CHEMBL1201862, “PubChem BioAssay data set” (2004).
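48-hour exposure; five concentrations; linearly interpolated endpoints. GI50 marks 50% less growth.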 Calls of active or inactive are those of the source. No stated cut-off is given here; in the data, active = GI50 up to about 1.1 µM and inactive = higher.

Columns and labels:
Assay in all cases: growth of human tumour cells (NCI), 48 h
786-0 = test system: 786-0
A498 = test system: A498
A549 = test system: A549
ACHN = test system: ACHN
CCRF-CEM = test system: CCRF-CEM
COLO 205 = test system: COLO 205
DMS-114 = test system: DMS-114
DMS-273 = test system: DMS-273
EKVX = test system: EKVX
HCC 2998 = test system: HCC 2998
HCT-116 = test system: HCT-116
HCT-15 = test system: HCT-15
HL-60 = test system: HL-60
HOP-18 = test system: HOP-18
HOP-62 = test system: HOP-62
HOP-92 = test system: HOP-92
HT-29 = test system: HT-29
IGROV-1 = test system: IGROV-1
K562 = test system: K562
KM12 = test system: KM12
LOX IMVI = test system: LOX IMVI
LXFL 529 = test system: LXFL 529
M14 = test system: M14
M19-MEL = test system: M19-MEL
MOLT-4 = test system: MOLT-4
Malme-3M = test system: Malme-3M
NCI-H226 = test system: NCI-H226
NCI-H23 = test system: NCI-H23
NCI-H460 = test system: NCI-H460
NCI-H522 = test system: NCI-H522
OVCAR-3 = test system: OVCAR-3
OVCAR-4 = test system: OVCAR-4
OVCAR-5 = test system: OVCAR-5
OVCAR-8 = test system: OVCAR-8
RPMI-8226 = test system: RPMI-8226
SF-268 = test system: SF-268
SF-295 = test system: SF-295
SF-539 = test system: SF-539
SK-MEL-28 = test system: SK-MEL-28
SK-MEL-2 = test system: SK-MEL-2
SK-MEL-5 = test system: SK-MEL-5
SK-OV-3 = test system: SK-OV-3
SN12C = test system: SN12C
SNB-19 = test system: SNB-19
SNB-75 = test system: SNB-75
SNB-78 = test system: SNB-78
SR = test system: SR
SW-620 = test system: SW-620
TK-10 = test system: TK-10
U-251 = test system: U-251
UACC-257 = test system: UACC-257
UACC-62 = test system: UACC-62
UO-31 = test system: UO-31
CAKI-1 = test system: CAKI-1
DLD-1 = test system: DLD-1
KM-20L2 = test system: KM-20L2
XF498 = test system: XF498
RXF 393 = test system: RXF 393

COc1c(C(=O)O)oc2c(OC)cccc12
GI50 (786-0): > 100 µM (inactive)
GI50 (A498): > 100 µM (inactive)
GI50 (A549): > 100 µM (inactive)
GI50 (ACHN): > 100 µM (inactive)
GI50 (CCRF-CEM): > 100 µM (inactive)
GI50 (COLO 205): > 100 µM (inactive)
GI50 (DMS-114): > 100 µM (inactive)
GI50 (DMS-273): > 100 µM (inactive)
GI50 (EKVX): > 100 µM (inactive)
GI50 (HCC 2998): > 100 µM (inactive)
GI50 (HCT-116): > 100 µM (inactive)
GI50 (HCT-15): > 100 µM
GI50 (HL-60): > 100 µM (inactive)
GI50 (HOP-18): > 100 µM (inactive)
GI50 (HOP-62): > 100 µM (inactive)
GI50 (HOP-92): > 100 µM (inactive)
GI50 (HT-29): > 100 µM (inactive)
GI50 (IGROV-1): > 100 µM (inactive)
GI50 (K562): > 100 µM (inactive)
GI50 (KM12): > 100 µM (inactive)
GI50 (LOX IMVI): > 100 µM (inactive)
GI50 (LXFL 529): > 100 µM (inactive)
GI50 (M14): > 100 µM (inactive)
GI50 (M19-MEL): > 100 µM (inactive)
GI50 (MOLT-4): > 100 µM (inactive)
GI50 (Malme-3M): > 100 µM (inactive)
GI50 (NCI-H226): > 100 µM (inactive)
GI50 (NCI-H23): > 100 µM (inactive)
GI50 (NCI-H460): > 100 µM (inactive)
GI50 (NCI-H522): > 100 µM (inactive)
GI50 (OVCAR-3): > 100 µM (inactive)
GI50 (OVCAR-4): > 100 µM (inactive)
GI50 (OVCAR-5): > 100 µM (inactive)
GI50 (OVCAR-8): > 100 µM (inactive)
GI50 (RPMI-8226): > 100 µM (inactive)
GI50 (SF-268): > 100 µM (inactive)
GI50 (SF-295): > 100 µM (inactive)
GI50 (SF-539): > 100 µM (inactive)
GI50 (SK-MEL-28): > 100 µM (inactive)
GI50 (SK-MEL-2): > 100 µM (inactive)
GI50 (SK-MEL-5): > 100 µM (inactive)
GI50 (SK-OV-3): > 100 µM (inactive)
GI50 (SN12C): > 100 µM (inactive)
GI50 (SNB-19): > 100 µM (inactive)
GI50 (SNB-75): 29.9 µM (inactive)
GI50 (SNB-78): > 100 µM (inactive)
GI50 (SR): > 100 µM (inactive)
GI50 (SW-620): > 100 µM (inactive)
GI50 (TK-10): > 100 µM (inactive)
GI50 (U-251): > 100 µM (inactive)
GI50 (UACC-257): > 100 µM (inactive)
GI50 (UACC-62): > 100 µM (inactive)
GI50 (UO-31): > 100 µM (inactive)

NC(=O)C(=O)C1C(=O)N(c2ccccc2)N=C1N (stereo unspecified)
GI50 (786-0): > 100 µM (inactive)
GI50 (A549): > 100 µM (inactive)
GI50 (ACHN): 49.4 µM (inactive)
GI50 (CAKI-1): > 100 µM (inactive)
GI50 (COLO 205): > 100 µM (inactive)
GI50 (DLD-1): > 100 µM (inactive)
GI50 (DMS-273): > 100 µM (inactive)
GI50 (HCC 2998): > 100 µM (inactive)
GI50 (HCT-116): > 100 µM (inactive)
GI50 (HCT-15): > 100 µM
GI50 (HL-60): > 100 µM (inactive)
GI50 (HOP-62): > 100 µM (inactive)
GI50 (HOP-92): > 100 µM (inactive)
GI50 (HT-29): > 100 µM (inactive)
GI50 (IGROV-1): > 100 µM (inactive)
GI50 (K562): > 100 µM (inactive)
GI50 (KM-20L2): > 100 µM (inactive)
GI50 (KM12): > 100 µM (inactive)
GI50 (LOX IMVI): > 100 µM (inactive)
GI50 (LXFL 529): > 100 µM (inactive)
GI50 (M14): > 100 µM (inactive)
GI50 (MOLT-4): > 100 µM (inactive)
GI50 (Malme-3M): > 100 µM (inactive)
GI50 (NCI-H226): > 100 µM (inactive)
GI50 (NCI-H23): > 100 µM (inactive)
GI50 (NCI-H460): > 100 µM (inactive)
GI50 (NCI-H522): > 100 µM (inactive)
GI50 (OVCAR-3): > 100 µM (inactive)
GI50 (OVCAR-4): > 100 µM (inactive)
GI50 (OVCAR-5): > 100 µM (inactive)
GI50 (OVCAR-8): > 100 µM (inactive)
GI50 (RPMI-8226): > 100 µM (inactive)
GI50 (SF-268): > 100 µM (inactive)
GI50 (SF-295): > 100 µM (inactive)
GI50 (SF-539): > 100 µM (inactive)
GI50 (SK-MEL-28): > 100 µM (inactive)
GI50 (SK-MEL-2): > 100 µM (inactive)
GI50 (SK-OV-3): > 100 µM (inactive)
GI50 (SN12C): > 100 µM (inactive)
GI50 (SNB-19): > 100 µM (inactive)
GI50 (SNB-75): > 100 µM (inactive)
GI50 (SNB-78): > 100 µM (inactive)
GI50 (SR): > 100 µM (inactive)
GI50 (SW-620): > 100 µM (inactive)
GI50 (TK-10): > 100 µM (inactive)
GI50 (UACC-257): > 100 µM (inactive)
GI50 (UACC-62): > 100 µM (inactive)
GI50 (UO-31): > 100 µM (inactive)
GI50 (XF498): > 100 µM (inactive)

CC(C)(C)NCC(COc1ccc([N+](=O)[O-])cc1)OP(c1ccccc1)c1ccccc1 (stereo unspecified)
GI50 (786-0): 29 µM (inactive)
GI50 (A498): 44.7 µM (inactive)
GI50 (A549): 40.6 µM (inactive)
GI50 (ACHN): 38.7 µM (inactive)
GI50 (CAKI-1): 28.8 µM (inactive)
GI50 (CCRF-CEM): 27.8 µM (inactive)
GI50 (COLO 205): 31.4 µM (inactive)
GI50 (DLD-1): 27.8 µM (inactive)
GI50 (DMS-114): 23 µM (inactive)
GI50 (DMS-273): 29.8 µM (inactive)
GI50 (EKVX): 53.1 µM (inactive)
GI50 (HCC 2998): 42.4 µM (inactive)
GI50 (HCT-116): 33 µM (inactive)
GI50 (HCT-15): 37.8 µM
GI50 (HL-60): 19.7 µM (inactive)
GI50 (HOP-62): > 100 µM (inactive)
GI50 (HT-29): 27.7 µM (inactive)
GI50 (IGROV-1): 53.3 µM (inactive)
GI50 (K562): 32.7 µM (inactive)
GI50 (KM-20L2): 36.4 µM (inactive)
GI50 (KM12): 29.9 µM (inactive)
GI50 (LOX IMVI): 11 µM (inactive)
GI50 (LXFL 529): 19.3 µM (inactive)
GI50 (M14): 26.8 µM (inactive)
GI50 (M19-MEL): 40.6 µM (inactive)
GI50 (MOLT-4): 18.9 µM (inactive)
GI50 (Malme-3M): 25 µM (inactive)
GI50 (NCI-H226): 29 µM (inactive)
GI50 (NCI-H23): 44.9 µM (inactive)
GI50 (NCI-H460): 35.8 µM (inactive)
GI50 (NCI-H522): 19.3 µM (inactive)
GI50 (OVCAR-3): 34 µM (inactive)
GI50 (OVCAR-5): 82.4 µM (inactive)
GI50 (OVCAR-8): 34.8 µM (inactive)
GI50 (RPMI-8226): 13.5 µM (inactive)
GI50 (RXF 393): 30.3 µM (inactive)
GI50 (SF-268): 49.1 µM (inactive)
GI50 (SF-295): 23.7 µM (inactive)
GI50 (SF-539): 53.1 µM (inactive)
GI50 (SK-MEL-28): 55 µM (inactive)
GI50 (SK-MEL-2): 35.4 µM (inactive)
GI50 (SK-MEL-5): 18.8 µM (inactive)
GI50 (SK-OV-3): 60.5 µM (inactive)
GI50 (SN12C): 36.6 µM (inactive)
GI50 (SNB-19): 38.7 µM (inactive)
GI50 (SNB-75): 33.7 µM (inactive)
GI50 (SNB-78): 25.9 µM (inactive)
GI50 (SW-620): 47.4 µM (inactive)
GI50 (TK-10): 43.9 µM (inactive)
GI50 (U-251): 41.5 µM (inactive)
GI50 (UACC-257): 44 µM (inactive)
GI50 (UACC-62): 44.4 µM (inactive)
GI50 (UO-31): 20.6 µM (inactive)
GI50 (XF498): 22.5 µM (inactive)
